Measured values: patent publication US9320276B2, “N-hetarylmethyl pyrazolylcarboxamides” (BAYER INTELLECTUAL PROPERTY GMBH, priority 2010, dated 2016)

Assays:
Sphaerotheca fuliginea = test: in vivo preventive test on Sphaerotheca fuliginea (cucumber); details: 500 ppm of active ingredient, evaluated 7 days after inoculation
Procedure: Solvent: 49 parts by weight of N,N-dimethylformamide Emulsifier: 1 part by weight of Alkylarylpolyglycolether To produce a suitable preparation of active compound, 1 part by weight of active compound is mixed with the stated amounts of solvent and emulsifier, and the concentrate is diluted with water to the desired concentration. To test for preventive activity, young plants are sprayed with the preparation of active compound at the stated rate of application. One day after this treatment, the plants are inoculated with an aqueous spore suspension of Sphaerotheca fuliginea. Then the plants are placed in a greenhouse at approximately 23° C. and a relative atmospheric humidity of approximately 70%. The test is evaluated 7 days after the inoculation. 0% means an efficacy which corresponds to that of the untreated control, while an efficacy of 100% means that no disease is observed.

[1] = tested on: Fusarium nivale (var. majus); test: in vivo curative test on Fusarium nivale (wheat); details: 500 ppm of active ingredient, evaluated 5 days after inoculation
Procedure: Solvent: 49 parts by weight of N,N-dimethylacetamide Emulsifier: 1 part by weight of alkylaryl polyglycol ether To produce a suitable preparation of active compound, 1 part by weight of active compound or active compound combination is mixed with the stated amounts of solvent and emulsifier, and the concentrate is diluted with water to the desired concentration. To test for curative activity, young plants are slightly injured by using a sandblast and afterwards they are sprayed with a conidia suspension of Fusarium nivale (var. majus) and placed for 24 hours in a greenhouse under a translucent incubation cabinet at a temperature of approximately 10° C. and a relative atmospheric humidity of approximately 100% and are subsequently sprayed with the preparation of active compound at the stated rate of application. After the spray coating has been dried, the plants remain in the greenhouse under translucent incubation cloches at a temperature of approximately 10° C. and a relative atmospheric humidity of approximately 100%. The test is evaluated 5 days after the inoculation. 0% means an efficacy which corresponds to that of the untreated control, while an efficacy of 100% means that no disease is observed.

Uromyces appendiculatus = test: in vivo preventive test on Uromyces appendiculatus (beans); details: 100 ppm of active ingredient, evaluated 10 days after inoculation
Procedure: Solvent: 24.5 parts by weight of acetone • 24.5 parts by weight of N,N-dimethylacetamide Emulsifier: 1 part by weight of alkylaryl polyglycol ether To produce a suitable preparation of active compound, 1 part by weight of active compound is mixed with the stated amounts of solvent and emulsifier, and the concentrate is diluted with water to the desired concentration. To test for preventive activity, young plants are sprayed with the preparation of active compound at the stated rate of application. After the spray coating has dried on, the plants are inoculated with an aqueous spore suspension of the causal agent of bean rust (Uromyces appendiculatus) and then remain for 1 day in an incubation cabinet at approximately 20° C. and a relative atmospheric humidity of 100%. The plants are then placed in a greenhouse at approximately 21° C. and a relative atmospheric humidity of approximately 90%. The test is evaluated 10 days after the inoculation. 0% means an efficacy which corresponds to that of the untreated control, while an efficacy of 100% means that no disease is observed.

Botrytis cinerea = test: in vivo protective test on Botrytis cinerea (beans); details: 100 ppm of active ingredient, preventive, lesion size 2 days after inoculation
Procedure: Solvent: 24.5 parts by weight of acetone • 24.5 parts by weight of N,N-dimethylacetamide Emulsifier: 1 part by weight of alkylaryl polyglycol ether To produce a suitable preparation of active compound, 1 part by weight of active compound is mixed with the stated amounts of solvent and emulsifier, and the concentrate is diluted with water to the desired concentration. To test for preventive activity, young plants are sprayed with the preparation of active compound. After the spray coating has dried on, 2 small pieces of agar covered with growth of Botrytis cinerea are placed on each leaf. The inoculated plants are placed in a darkened chamber at 20° C. and a relative atmospheric humidity of 100%. 2 days after the inoculation, the size of the lesions on the leaves is evaluated. 0% means an efficacy which corresponds to that of the untreated control, while an efficacy of 100% means that no disease is observed.

Puccinia triticina = test: in vivo protective test on Puccinia triticina (wheat); details: 500 ppm of active ingredient, preventive, evaluated 8 days after inoculation
Procedure: Solvent: 49 parts by weight of N,N-dimethylacetamide Emulsifier: 1 part by weight of alkylaryl polyglycol ether To produce a suitable preparation of active compound, 1 part by weight of active compound or active compound combination is mixed with the stated amounts of solvent and emulsifier, and the concentrate is diluted with water to the desired concentration. To test for preventive activity, young plants are sprayed with the preparation of active compound or active compound combination at the stated rate of application. After the spray coating has been dried, the plants are sprayed with a spore suspension of Puccinia triticina. The plants remain for 48 hours in an incubation cabinet at approximately 20° C. and a relative atmospheric humidity of approximately 100%. The plants are placed in the greenhouse at a temperature of approximately 20° C. and a relative atmospheric humidity of approximately 80%. The test is evaluated 8 days after the inoculation. 0% means an efficacy which corresponds to that of the untreated control, while an efficacy of 100% means that no disease is observed.

| Structure (SMILES) | Efficacy (Sphaerotheca fuliginea) [%] | Efficacy [1] [%] | Efficacy (Uromyces appendiculatus) [%] | Efficacy (Botrytis cinerea) [%] | Efficacy (Puccinia triticina) [%] |
| --- | --- | --- | --- | --- | --- |
| CC(c1cc2ccccc2o1)N(C(=O)c1c(C(F)F)nn(C)c1F)C1CC1 (racemic) [Example 70] | 98 | 100 | 100 | 95 |  |
| CC(c1cc2ccccc2s1)N(C(=O)c1c(C(F)F)nn(C)c1F)C1CC1 (racemic) [Example 80] | 99 | 93 |  | 100 | 100 |
| CC(c1cccc2ccsc12)N(C(=O)c1c(C(F)F)nn(C)c1F)C1CC1 (centres unmarked) [Example 91] | 88 | 71 |  |  | 100 |
| Cn1nc(C(F)F)c(C(=S)N(Cc2cccc3ccsc23)C2CC2)c1F [Example 95] | 88 | 86 | 90 |  | 83 |
| CC(c1cc(Cl)sc1Cl)N(C(=O)c1c(C(F)F)nn(C)c1F)C1CC1 (centres unmarked) [Example 128] | 98 | 100 | 100 | 100 | 100 |
| Cc1sc(-c2ccccc2)cc1C(C)N(C(=O)c1c(C(F)F)nn(C)c1F)C1CC1 (centres unmarked) [Example 147] | 88 | 92 | 83 | 100 |  |
| CC(C)c1nn(-c2ccccc2)c(Cl)c1CN(C(=O)c1c(C(F)F)nn(C)c1F)C1CC1 [Example 169] | 100 | 83 | 100 | 100 | 100 |
